We go through two molecules from US12102607B2, “C5aR inhibitors for use in the treatment of chemotherapy-induced iatrogenic pain” (Dompe' Farmaceutici S.P.A., priority 2017, dated 2024).

The test system of series [1] is chemotherapy-induced iatrogenic pain (CIIP) in male Balb/C mice. The experiment in a line: CIIP model (paclitaxel), mechanical threshold with von Frey filaments, DF2593A. The class given is in vivo. On the procedure:
(§1) The experiments were performed in male Balb/c wild type (WT) and in C5aR deficient (C5aR^−/−) mice (6-8 weeks age). For the experiments with DF2593A, animals were housed in the animal care facility of the Ribeirao Preto Medical School, University of Sao Paulo, in plastic cages at 20° C.±1° C. with water and food ad libitum and controlled light/dark cycle. When done oral acute treatment, animals were kept without food for 2-4 hours. Animals were taken to the testing room at least 1 h before experiments and were used only once. Animal care and handling procedures were in accordance with the International Association for the Study of Pain guidelines and with the control of Animal Ethic Committee from Ribeirao Preto Medical School, protocol 120/2014.
(§2) The protocol used was performed according POLOMANO et al., 2001, adapted to mice. The animals received paclitaxel 4 mg/kg intraperitoneally (i.p.) for four alternate days (days 1, 3, 5, and 7). During treatment period, mechanical and cold allodynia were measured 4 hours after the injection of paclitaxel.
(§3) DF2593A was orally given in dose of 1 mg/kg at 8 and 14th days after first paclitaxel injection. The effect of drug was evaluated 2, 4, 6 and 24 hours after administration.
(§4) DF2593A was given orally in a dose of 1 mg/kg, 12 in 12 hours, for 7 days during the induction phase of CIIP. On days 1, 3 5 and 7, the administration of DF2593A was 1 hour before paclitaxel.
(§5) DF2593A in doses of 10, 30 or 100 μg/5 μL was injected at 8 and 14th days after the first injection of paclitaxel (CIIP).
(§6) In DF2593A experiments, mechanical hyperalgesia was tested using von Frey filaments. Mice were placed in acrylic cages (12×10×17 cm) with wire grid floors in a quiet room 15-30 minutes before the start of testing. A crescent series of filaments were applied on right paw of CIIP mice. The lower filament able to elicit flinching movements was recorded as the mechanical threshold. The animals were tested before and after treatments and the results are expressed as log of mechanical threshold.

For series [2] the test system is unchanged. The experiment in a line: CIIP model (paclitaxel), cold response acetone test, DF2593A. The class given is in vivo. As to the method: as §1, §2, §3, §4, §5
In the same apparatus of von Frey test, and nearly 15 minutes after the mechanical test, was performed the acetone test. With a 1 mL syringe, one drop (50 μL) of pure acetone was released allowing the spreading of liquid for the both paw surfaces (dorsal and plantar). All movements as licking, flinching or lifting of paw were recorded with a chronometer in a total testing time of 2 minutes.

The subject of series [3] is acetylated α-Tubulin. The experiment in a line: In-cell western analysis of acetylated α-Tubulin in DRG neurons. The class given is cell-based, Sprague Dawley rat. As to conditions: for Acetylated α-Tubulin (% of UT): DRG neurons. As to the method: (§7) Dorsal Root Ganglion neurons were obtained by dissociation of post natal (P2) Sprague Dawley rat ganglia (Envigo, Bresso Italy), following well-defined protocols (O'Meara et al, 2011; Owen et al, 2012). To minimize introduction of contaminating cells into the culture, any excessively long roots were trimmed from DRGs. After the isolation, DRGs were enzymatically dissociated as follows: • 20 minutes of 1.5 mg/ml papain exposure at 37° C., • 30 minutes of 4 mg/ml collagenase exposure at 37° C.
(§8) Subsequently, cells were mechanically dissociated with a fire polished glass Pasteur pipette, in order to obtain a single cell suspension.
(§9) Once dissociation was achieved, cells were seeded onto 96 black multiwell plates coated with Laminin (10 ug/mL, overnight at Room Temperature, RT) at selected densities. Following 1 week of incubation in DMEM high glucose medium supplemented with 10% FBS, 1× N2, 1× B27, 100 IU/mI penicillin, […] streptomycin, cells were treated according to experimental needs.
Dorsal Root Ganglion neurons isolated as previously reported were subjected to the following experimental challenge scheme as depicted in FIG. 10.
Paclitaxel, C5a and drugs were administered 24 hr prior the in-cell western experiment. Following 24 hr of treatment with appropriate stimuli as previously indicated, cells were washed with 1×PBS and fixed with 3,7% formaldehyde for 15 min. After the removal of fixing solution, cells were washed with 1×PBS and permeabilized with 1×PBS-0,1% Triton X-100 for 5 min at RT. Cells were then stained over night at 4° C. with the anti-acetylated α-Tubulin antibody, diluted 1:500 in Odyssey Blocking buffer, following manufacturer's protocol.
The next day, cells were washed with 1×PBS-0.1% Tween20, and stained with the secondary antibody (diluted 1:800 in Odyssey Blocking buffer, as recommended by the protocol) and with the CellTag 700Stain […]. To lower the background, Tween20 at a final concentration of 0.2% was added to the Odyssey Blocking buffer. 96-well plates were then read at Odyssey CLx Imaging system and images acquired. Data analysis was carried out by the use of Image Studio 2.1 software.
Paclitaxel was given to the DRG neurons following 7 days of culture at the concentration of 200 nM (Scuteri et al. 2006).
Effect of DF3966Y in C5α-induced neuronal toxicity In order to determine whether the observed effects may be triggered also by C5a, recombinant mouse C5a 1 μg/ml (111.11 nM) was given to the DRG neurons after 7 days of culture in presence or absence of DF3966Y 1 μM.
After 24 hr of incubation, acetylated α-Tubulin was quantified using in-cell western technique, as previously described.

The test system of series [4] is male Balb/C mice. In words: Intrathecal injection of recombinant C5a, mechanical threshold (von Frey hair test). The format is in vivo. As to the method:
as §1
(§10) Recombinant mouse C5a was given by intrathecal way, in a volume of 5 μL, and its effect follows for 1, 3, 5, 7 and 24 hours after injection.
as §6

Series [5] has as its system male Balb/C mice. The experiment in a line: Intrathecal injection of recombinant C5a, thermal threshold (Hargreaves test). The class given is in vivo. As to conditions: higher doses, between 5 and 7 hours after injection. On the procedure: as §1, §10
Hargreaves test was performed as previous described (HARGREAVES et al., 1988). The animals were habituated on a glass surface with controlled temperature, which allow the homogeneous delivery of infrared light on the paw. After the activation of the light source, a chronometer was turned on. A crescent temperature reached the paw and the chronometer was turned off as soon as the animal did a withdraw movement out the light. The time recorded was considered the heat latency. […]

For series [6], the system named is DRG neurons. The experiment in a line: Cells number of DRG neurons (immunofluorescence, image analysis). The format is cell-based. As to the method:
as §7, §8, §9
(§11) Alpha Tubulin Acetylation DRG-derived neurons were cultured for 7 days and then treated with:
(§12) • paclitaxel (200 nM, 500 nM, 1 μM and 5 μM, 20 μM) in presence or absence of DF3966Y (0.1, 1 and 10 μM) or DF2593A (0.1, 1 and 10 μM) • or C5a (500 ng/ml and 1 μg/ml) in presence or absence of DF3966Y (1 μM)
(§13) After 24 hr of treatment, cells were stained by immunofluorescence.
(§14) Cells were fixed with saccharose-paraformaldehyde then staining was performed overnight. Primary antibodies (anti—Ill Tubulin and anti-synaptotagmin 1) were diluted 1:500 in 1×PBS-4% BSA-2% Normal goat serum and 0.3% Triton x-100. The next day, cells were washed with 1×PBS-4% BSA and secondary antibodies were used diluted 1:500 in 1×PBS-4% BSA-2% Normal goat serum and 0.3% Triton x-100. After 1 hr of incubation, cells were washed with 1×PBS. Hoechst was used as a counterstain.
(§15) Sixteen images per well were taken with ArrayScan XTI HCA Reader (Thermo Fisher Scientific) with and 40× objective. All the analysis were done with HCS Studio software
(§16) Cells number, synapse number and dentritic arborization were evaluated in untreated cells and in cells stimulated with paclitaxel and C5a alone or in presence of the drug. As marker of chemotherapy-induced toxicity, the total number of synapses on DRG neurons was quantitative evaluated as percentage of the number of synapse with respect to untreated (UT) control.
(§17) Data are obtained as the sum of the values obtained by the analysis of sixteen fields per well for each experiment. Percentage of the values in respect to the relative mean untreated group was calculated. Mean of the percentages from 4 separate experiments was plotted in the following Tables 2-7.

Series [7] concerns DRG neurons. In words: Synapse number on DRG neurons (synaptotagmin staining, image analysis). The format is cell-based, Sprague Dawley rat. As to the method: as §7, §8, §9, §11, §12, §13, §14, §15
For synapse count a threshold has been set, in particular all the objects, positive to synaptotagmin staining, in the range 0.365-2.457 μm^2 have been considered as synapses.
as §16, §17

The subject of series [8] is DRG neurons. The experiment in a line: Dendritic tree area of DRG neurons (image analysis). The class given is cell-based, Sprague Dawley rat. As to conditions: C5a alone (Table 7), relative to UT. On the procedure: as §7, §8, §9, §11, §12, §13, §14, §15
Dendritic arborization directly influences synaptic genesis and input. A well-developed arborization indicates a functional synaptic network. For this reason, the area occupied by dendritic arborization has been quantified.
as §17

Series [9] deals with DRG neurons. The experiment in a line: Electrophysiological recordings (whole-cell patch-clamp, current-clamp) of DRG-derived neurons. The class given is cell-based, Sprague Dawley rat. The note with it: 1 μg/ml C5a alone. As to the method: as §7
Dorsal Root Gangliar (DRG)-derived neurons were cultured for 7 days and then treated in blind with the following combinations: 10 nM Paclitaxel, 10 nM Paclitaxel+1 μM DF3966Y, 1 μg/ml C5a, 1 μg/ml C5a+1 μM DF3966Y.
The compounds were administered for 1 min 30 sec (short acute stimulation) or 5 minutes (long chronic stimulation). The application of the compounds was followed by a wash-out in the physiological control solution for an equivalent time (about 10 min).
Electrophysiological recordings were performed by the patch-clamp technique in the whole-cell configuration. The standard extracellr solution was bath applied and contained the following (mM): NaCl 135, KCl 2, CaCl2 2, MgCl2 2, hepes 10, glucose 5, pH 7.4. The standard pipet solution contained the following (mM): potassium aspartate 130, NaCl 10, MgCl2 2, CaCl2 1.3, EGTA 10, Hepes 10, pH 7.3. Recordings were acquired by the pClamp8.2 software and the MultiClamp 700A amplifier (Axon Instruments), in current-clamp mode.
A general note: In patch-clamp work, channel activity is measured electrically.

The mark [10] stands for this setting: 1 mg/kg oral, 8th and 14th day of CIIP, 2 until 6 hours after administration.
The mark [11] stands for this setting: 1 mg/kg p.o. 12/12 hours for 7 days during induction phase of CIIP, 1 hour before paclitaxel.
The mark [12] stands for this setting: 10, 30 or 100 μg/5 μL intrathecal, established CIIP (8 and 14th day).

`C[C@@H](NC(=O)CCCN1CCCCC1)c1ccc(OS(=O)(=O)C(F)(F)F)cc1` [DF2593A, N-[(1R)-1-(4-trifluoromethanesulfonyloxy)phenylethyl]-4-piperidin-1-ylbutanamide]: the “efficacy of the lowest intrathecal dose” value in [1] (10 μg/5 μL intrathecal, 8th day) is recorded as “still statistically significant”. Further, in series [1] (setting [10]), the “mechanical hypersensitivity, acute oral post treatment” value is given as “able to reduce the mechanical hypersensitivity”. In addition, in [1] (1 mg/kg oral, established pain condition), the “duration of reduction of mechanical and cold hypersensitivity after administration” value was “at least 6 hours”. The “development of mechanical nociceptive response, chronic pre treatment” value in [1] (setting [11]) is listed as “prevents the development”. The “mechanical allodynia, intrathecal treatment” value in series [1] (setting [12]) was “improves mechanical and cold allodynia”. The “effect on mechanical and cold response 24 hours after the last dose” value in series [1] (chronic 1 mg/kg p.o., 24 hours after the last DF2593A dose) is given as “no effect is observed”. Also, the “cold response, acute oral post treatment” value in series [2] (setting [10]) was “is reduce after DF2593A treatment”. Besides, the “development of cold nociceptive response, chronic pre treatment” value in series [2] (setting [11]) is given as “prevents the development”. Further, the “cold allodynia, intrathecal treatment” value in series [2] (setting [12]) is “improves mechanical and cold allodynia”. The “Acetylated α-Tubulin (% of UT)” value is on record as 107.38 % of UT in [3] (drug 0.1 μM under Paclitaxel 200 nM, 24 hr); 100.67 % of UT in series [3] (drug 1 μM under Paclitaxel 200 nM, 24 hr); 70.72 % of UT in series [3] (drug 10 μM under Paclitaxel 200 nM, 24 hr). The “reversal of Paclitaxel-induced increase in acetylated α-Tubulin” value was “not able to revert” in series [3] (drug 0.1 μM, Paclitaxel 200 nM) and “reverted the Paclitaxel-induced challenge” in series [3] (drug 1 μM, Paclitaxel 200 nM). Also, the “reduction in acetylated α-Tubulin with respect to control (UT) cells” value in series [3] (drug 10 μM, Paclitaxel 200 nM) is “about 25%”.

B1: C5a: recombinant mouse C5a, complement peptide fragment, purchased from R&D (protein, UniProt P06684 679-755, looked up)
C5a anaphylatoxin: NLHLLRQKIEEQAAKYKHSVPKKCCYDGARVNFYETCEERVARVTIGPLCIRAFNECCTIANKIRKESPHKPVQLGR
modifications: C5a anaphylatoxin
notes: recombinant mouse C5a, complement peptide fragment, purchased from R&D
B1: in [4] (100, 300 and 600 ng/5 μL intrathecal, mice, up to 24 hours after injection), the “mechanical threshold after intrathecal C5a” value is given as “promoted reduction of mechanical threshold in a dose-dependent manner”. Also, the “C5a pro-nociceptive effect in C5aR−/− mice” value in series [4] (intrathecal C5a, C5aR−/− mice) is reported as “abrogated”. The “heat latency after intrathecal C5a” value in series [5] is “caused a decrease in heat latency”. For the same molecule, the “levels of acetylated α-Tubulin under C5a” value in [3] (C5a 1 μg/ml alone, 24 hr) is “able to increase the levels of acetylated α-Tubulin”. For the same molecule, the “% of cell number” value in series [6] (C5a alone (Table 3), relative to UT) turned out to be 98.69 ± 4.22%. Also, in series [6] (C5a alone or in combination with DF3966Y 1 μM), the neuronal death result is recorded as “did not induce neuronal death”. Moreover, in series [7] (C5a alone), the “neuronal activity damage (synapse number)” value is given as “did not induce neuronal activity damage”. For the same molecule, the “% of synapse number” value in series [7] (C5a alone (Table 5), relative to UT) is 116.90 ± 17.43%. The “% dendritic tree area” value in [8] is 102.68 ± 9.48%. Besides, the “increase of the firing rate, immediate” value in [9] (immediate) is “+55.61%”. In addition, the “reduction of electrical activity, longer times of exposure” value in [9] (longer times of exposure) is listed as “about 70%”.
